Test results taken from EP1298214A2, “Plant thioesterases” (Calgene LLC, priority 1990, dated 1991).

Key:
[1] = test system: pET3a-THI0 E. coli lysate (truncated Bay 12:0-ACP thioesterase); assay: Acyl-ACP hydrolysis by lysate of E. coli expressing truncated Bay thioesterase cDNA; type: biochemical, Umbellularia californica; details: 1 hour induction with 1mM IPTG
Experimental: (§1) To assay for C12 thioesterase activity the following mixture is incubated at 30° for 30 min: "buffer" comprising 7mM KH2PO4-KOH pH 8, 20% v/v glycerol, 1mM dithiothreitol (DTT), 0.1% v/v Triton X100; sample to be tested for activity in the same or similar buffer as the "extraction buffer" described in Example 2; and 5µl of ^14C-radiolabeled lauroyl-ACP substrate for a total volume of 100µl and final lauroyl-ACP concentration of 0.5µM. Lauroyl-ACP substrate is prepared according to the method of Rock et al (Methods in Enzymology (1981) 72:397-403), using ACP prepared from Escherichia coli by the method of Rock and Cronan (Methods in Enzymology (1981) 71:341-351). The laurate is radiolabeled in the carboxylate group at a specific radioactivity of 50-60µCi/µmol.
(§2) The reaction is stopped by adding 0.5ml cold (0°) 10% v/v acetic acid. The fatty acid product of the hydrolytic enzyme action is extracted away from the unhydrolyzed substrate by adding 1ml diethyl ether and mixing vigorously. After settling for a few minutes the upper ether layer is transferred to 5ml scintillation fluid for determination of radioactivity by liquid scintillation spectrometry. Additional ether extractions may be performed to recover remaining traces of the reaction product for more accurate quantitation of the enzyme activity if desired. The amount of ether-extracted radioactivity is a direct measure of C12-preferring acyl-ACP thioesterase activity, provided the amount of enzyme is not sufficient to hydrolyze more than about 25% of the substrate. With greater activity than this the relationship between radioactivity in the ether layer and the quantity of enzyme becomes markedly nonlinear. The enzyme preparation must then be diluted appropriately to bring the activity into the linear range of the assay.
A pET3a vector (Rosenberg, et al., Gene (1987) 56:125-135) is used in an E. coil strain BL21 (PE3) (Studier and Moffat, J. Mol. Biol. (1986) 189:113-130) host for this study. The pET3a vector contains a promoter and 33 bp of the 5' reading frame of bacteriophase T7. T7 polymerase is under the regulatory control of an isopropyl-b-D-thiogalactopyranoside (IPTG)-inducible lac UV5 promoter found in the E. coli BL21 (DE3) strain. Thus, by the addition of IPTG to E. coli BL21 (DE3) transformed with pET3a, the T7 promoter will be activated.
Constructs are prepared containing the truncated cDNA of Fig. 2 fused in reading frame by deletion of the BamHI/EcoRI fragment and replacement of the thioesterase sequence. E. coli are transformed with pET3a constructs containing the thioesterase (pET3a-THI0) and unmodified pET3a as a control. The E. coli are grown at 37°C in liquid medium and expression is induced by the addition of 1mM IPTG. […]

[2] = target: T1, pCGN3823 induced E. coli lysate (mature bay thioesterase) (Umbellularia californica, UniProt Q41635); assay: Acyl-ACP hydrolysis by lysate of E. coli expressing mature bay thioesterase as lac fusion; type: biochemical; details: Dilution 1/4000, one hour induction with 0.1mM IPTG
T1 construct: the entire mature bay thioesterase protein is expressed as a lac fusion in E. coli cells; made in house
T1 sequence (Q41635 84-382): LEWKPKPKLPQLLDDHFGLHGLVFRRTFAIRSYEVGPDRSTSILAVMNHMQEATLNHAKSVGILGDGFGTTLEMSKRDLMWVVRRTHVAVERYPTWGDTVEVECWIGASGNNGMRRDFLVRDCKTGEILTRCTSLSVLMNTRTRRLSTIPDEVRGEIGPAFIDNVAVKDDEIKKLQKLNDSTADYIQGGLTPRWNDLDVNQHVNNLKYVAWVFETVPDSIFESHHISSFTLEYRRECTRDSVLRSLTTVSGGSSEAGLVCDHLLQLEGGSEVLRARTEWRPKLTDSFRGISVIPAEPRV
Experimental: as §1, §2
In addition, the entire mature bay thioesterase protein is expressed as a lac fusion in E. coli cells. […] Digestion at this XbaI site cleaves the coding region immediately 5' of the codon representing the leucine at amino acid position 72. This leucine has been identified as a candidate for the amino terminal residue as described in Example 14A.
An approximately 1200 bp fragment of pCGN3822 cDNA is generated by digestion with XbaI, which cuts at the postulated mature protein start site, as described above, and in the vector sequences flanking the 3' end of the cDNA. The XbaI fragment is cloned on XbaI digest of the minus version of a Bluescribe M13(+/-) (also called pBS+/-) cloning vector (Stratagene; San Diego, CA.). The thioesterase gene clone is inserted such that the mature protein is in reading frame with a portion of the lacZ gene of the Bluescribe vector and under control of the lac promoter. […]

Substance | Hydrolysis Activity (mean cpm in ether extract) [1] [cpm] | Hydrolysis Activity (mean cpm in ether extract) [2] [cpm]
14:0-ACP | 1035 | 116
16:0-ACP | 1900 | 20
decanoyl-ACP [10:0-ACP] | 621 | 0
lauroyl-ACP [12:0-ACP] | 2127 | 1840
